Measurements from patent US7846966B2, “Chroman derivatives as estrogenic compounds” (N.V. Organon, priority 2000, dated 2010).

Tested on: human estrogen receptor α (hERα) or β receptor (hERβ)
Test: in vitro transactivation bioassay (estrogenic activity) in recombinant CHO cells co-transfected with hER, rat oxytocin promoter and luciferase reporter
Type: cell-based
Conditions: for Potency Transactivation (% relative to 17β-estradiol): agonist potency ratio vs estradiol, CHO cells, luciferase reporter, receptor subtype not given; for β/α ratio: ratio of hERβ to hERα
Protocol: The estrogenic and antiestrogenic activity of compounds is determined in an in vitro bioassay with recombinant Chinese hamster ovary (CHO) cells stably co-transfected with the human estrogen receptor α (hERα) or β receptor (hERβ), the rat oxytocin promoter (RO) and the luciferase reporter gene (LUC). The estrogenic activity (potency ratio) of a test compound to stimulate the transactivation of the enzyme luciferase mediated via the estrogen receptors hERα or hERβ is compared with the standard estrogen estradiol. The antiestrogenic activity (potency ratio) of a test compound to inhibit the transactivation of the enzyme luciferase mediated via the estrogen receptors hERα or hERβ by the estrogen estradiol is compared with the standard ICI 164.384 (=(7α, 17β)-N-butyl-3,17-dihydroxy-N-methylestra-1,3,5(10)-triene-7-undecanamide).

In the case of `CCC1C(Cc2ccccc2)c2cc(OC(=O)C(C)(C)C)ccc2OC1c1ccc(OC(=O)C(C)(C)C)cc1` (racemic) [Compound 6b], the “Potency Transactivation (% relative to 17β-estradiol)” value is reported as “+ (+ between 0.1-4%)” and the β/α ratio is reported as “+ (+ between 3.5-10)”.
For `CCCC(=O)Oc1ccc(C2Oc3ccc(OC(=O)CCC)cc3C(Cc3ccccc3)C2CC)cc1` (racemic) [Compound 6a], the “Potency Transactivation (% relative to 17β-estradiol)” value was “+++ (+++ >10%)” and the β/α ratio was “+++ (+++ >30)”.
With `CCC1C(Cc2ccccc2)c2cc(O)ccc2OC1c1ccc(O)cc1` (stereo not drawn) [Compound 5b] the “Potency Transactivation (% relative to 17β-estradiol)” value was “+++ (+++ >10%)” and the β/α ratio was “+++ (+++ >30)”.
